We go through twelve molecules from patent EP2729445B1, “CYCLIC AMINE DERIVATIVES AS EP4 RECEPTOR ANTAGONISTS” (Rottapharm Biotech S.r.l., priority 2011, dated 2013).

For series [1], the target named is T1, hEP4 receptors (Homo sapiens, UniProt P35408).
T1 construct: membrane fraction used
Description: [3H]-Prostaglandin E2 membrane binding assay. The protocol:
(§1) The cDNA clone of human EP4 receptor (NM_000958.2) was obtained from InvitrogenTM: Ultimate™ ORF Clone Collection - Clone ID IOH46525. The coding sequence was subcloned in expression vector pcDNATM6.2/V5-DEST by Gateway technology (InvitrogenTM). Human embryonic kidney cells (HEK-293) were stably transfected with expression vector for human EP4 receptor in according to the method described in FuGENE®6 Transfection Reagent's manual (Roche Applied Science®).
(§2) The EP4 transfected cells were grown in Dulbecco's modified Eagle's medium containing 10% fetal bovine serum and 10 µg/ml Blasticidin S HCl (selection medium) at 37°C in a humidified atmosphere of 5% CO2 in air. For the membrane preparation, cells in flask were harvested by hypotonical/mechanical lysis with chilled (4°C) TE buffer (5mM TRIS, 5mM ethylenediamine tetra-acetic acid (EDTA), pH 7.4). Cells were detached and lysed with 10ml of hypotonic lysis buffer and by scraping. The cell lysate was vortexed for 30 sec and centrifuged at 40000x g at 4°C for 22min.
The membrane pellet was resuspended in the same buffer (5mM TRIS, 5mM ethylenediamine tetra-acetic acid (EDTA), pH 7.4), and protein concentration was determined by Bradford method (Bio-Bad® assay). This membrane preparation was stored at -80°C freezer until use for binding assay. ([^3H]-PGE2) membranes binding assays toward hEP4 receptors (human EP4/HEK293 transfectant, see above) and hEP2 receptors (human EP2/HEK293 transfectant, purchased from PerkinElmer Inc) were performed in 10 mM MES-KOH buffer pH6, containing 10 mM MgCl2 and 1 mM CaCl2 for EP4 binding assay or 50 mM Tris-Cl, BSA 0.5% for EP2 binding assay (according to supplier indication) . Ten microgram of protein from membrane fractions were incubated in a total volume of 0.1ml (EP4) or 0.2ml (EP2) with 1nM (EP4) or 3nM (EP2) [^3H]-PGE2 (PerkinElmer Inc, 171Ci/mmol). In both assays to determine the total binding or non specific binding, 1% DMSO or 1µM prostaglandin E2 (EP4) or 100 µM (EP2) were added to reaction mixtures, respectively. Incubation was conducted in a polypropylene 96 multiwell for 90 min (EP4) or 60 min (EP2) at room temperature prior to separation of the bound and free radioligand by vacuum manifold rapid filtration on glass fiber filters (Unifilter GFB96, PerkinElmer Inc) pre-soaked in 0.3% polyethyleneimine. Filters were washed with ice cold buffer pH 7.4 (50mM HEPES, NaCl 500mM, BSA 0.1% for EP4 binding assay or 50mM Tris-Cl for EP2 binding assays) and the residual [^3H]-PGE2 binding determined by solid scintillation counter (TopCount , PerkinElmer Inc).
The affinity (Ki) of each compound was calculated according to the Cheng-Prousoff equation: Ki = IC50/(1+([C]/Kd)). Results were expressed as pKi (- log10 Ki (M)

The target of series [2] is T1, hEP4 receptors. Description: cAMP assay (AlphaScreen) on human EP4 membrane of transfected cells, antagonism of PGE2. The format is biochemical. As to conditions: HEK293 cell membrane stimulated with PGE2 3nM; read-out: functional IC50. The protocol: as §1, §2
The assay is based on the competition between endogenous cAMP and exogenously added biotinylated cAMP. The capture of cAMP is achieved by using a specific antibody conjugated to Donor beads. Cell membranes prepared as described above, were resuspended in 1 ml stimulation buffer (HBSS 1X + BSA 0.1% + IBMX 0.5mM + HEPES 5mM + MgCl2 10mM + GTP 1 nM + GDP 10µM + ATP 100µM - pH 7.4). Cell membranes were dispensed into white 384-well microplates at final concentration of 1µg/well and used for the determination of cAMP with the alphascreen cAMP functional assay (EnVision - PerkinElmer). Cell membrane/anti-cAMP Acceptor beads mix (5 µl) and a mixture of analysed compounds (dissolved in 100% DMSO to a final maximal concentration of 0.01% DMSO)/PGE2 (5 µl) were incubated at room temperature (22-23°C) for 30 min in the dark. The Biotinylated-cAMP and donor beads (15 µl) were dispensed into each well to start the competition reaction. After 1 h incubation RT (22-23°C) in the dark the plate was read using EnVision platform to determine the cAMP level (excitation: 680nm; emission:520,620nm). In each experiment:
cAMP standard curve (concentration range from 1x10-6 to 1x10-11 M in log intervals) with a negative control (no cAMP)
a positive control: forskolin 10µM
Antagonism studies were performed stimulating HEK293 cell membrane with PGE2 3nM. The AlphaScreen signal is plotted as a function of log concentration of cAMP and functional IC50 is determined. IC50 value is calculated by linear regression.

A short description of series [3]: Pharmacokinetics after intravenous and oral treatment, plasma LC-MS/MS. The format is in vivo, male Han Wistar rats. Particulars: rat, 1 mg/kg; for AUC(0-inf): extrapolated to infinity. The protocol:
The pharmacokinetics of compounds E7, E17 and E18, were studied in male Han Wistar rats. The rats were treated intravenously and orally (n=3 for each dose route) with compounds formulated as solutions. The rats were fitted with a jugular cannula for serial sampling. A full profile was acquired from each rat. Plasma extracts were quantitatively analyzed using a specific and sensitive LC-MS/MS bioanalytical method. Inter-individual variations between the three rats in each group were limited (CV for pharmacokinetic parameters was below 50%). […] A range of clearance values were obtained for the different structure, ranging from low to moderate values (from 43 to 250 ml/h). After oral administration, absorption was quite fast with a clear maximum concentration reached by the first sampling time-point of 15 minutes for all compounds.

The mark [4] stands for this setting: read-out: Binding pKi (converted).
Where [5] appears, read: human EP4/HEK293 transfectant membranes, 1nM [3H]-PGE2, Ki from IC50 by Cheng-Prousoff, pKi = -log10 Ki (M).

Like-named read-outs stand apart in the source and are kept apart here.

T1 sequence (P35408 whole entry): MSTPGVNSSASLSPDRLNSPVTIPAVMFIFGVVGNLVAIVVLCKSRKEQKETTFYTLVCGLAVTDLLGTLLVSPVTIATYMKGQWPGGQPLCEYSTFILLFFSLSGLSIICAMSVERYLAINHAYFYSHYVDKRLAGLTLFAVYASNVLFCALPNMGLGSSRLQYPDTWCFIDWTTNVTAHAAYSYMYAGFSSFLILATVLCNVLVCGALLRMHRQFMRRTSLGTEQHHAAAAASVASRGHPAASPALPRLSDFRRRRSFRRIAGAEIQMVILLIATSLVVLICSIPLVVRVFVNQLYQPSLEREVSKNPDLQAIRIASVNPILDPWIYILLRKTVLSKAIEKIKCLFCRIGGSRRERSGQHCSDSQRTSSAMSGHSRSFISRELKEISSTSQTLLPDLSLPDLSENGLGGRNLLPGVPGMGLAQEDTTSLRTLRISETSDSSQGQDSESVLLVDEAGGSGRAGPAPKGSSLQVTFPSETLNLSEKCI

For `O=C(O)c1ccc(C2(NC(=O)C3CC4CC4CN3Cc3ccc(C(F)(F)F)cc3)CC2)cc1` (single isomer, unassigned) [Example E23, 4-(1-(3-(4-(trifluoromethyl)benzyl)-3-azabicyclo[4.1.0]heptane-4-carboxamido)cyclopropyl)benzoic acid], the Ki on hEP4 receptors [1] (setting [4]) was 1e-08 M. The IC50 (as a rule, the point on the concentration scale where inhibition reaches its midpoint) at hEP4 receptors [2] turned out to be 11.5 nM.

With `C[C@H](NC(=O)C1CC2(CCN1Cc1ccc(C(F)(F)F)cc1)CC2)c1ccc(C(=O)O)cc1` (single isomer, unassigned) [Example E10], the Ki on hEP4 receptors [1] (setting [4]) is 3.98e-08 M. In addition, the IC50 on hEP4 receptors [2] stood at 29 nM.

In the case of `O=C(O)c1ccc(C2(NC(=O)[C@H]3C[C@H]4C[C@H]4N3Cc3cccc(C(F)(F)F)c3)CC2)cc1` [Example E29, 4-(1-((1R,3R,5R)-2-(3-(trifluoromethyl)benzyl)-2-azabicyclo[3.1.0]hexane-3-carboxamido)cyclopropyl)benzoic acid], the Ki at hEP4 receptors [1] (setting [4]) is 2.51e-09 M. For the same molecule, the IC50 at hEP4 receptors [2] amounted to 16 nM.

As to `O=C(O)c1ccc(C2(NC(=O)[C@H]3CCC4CC4N3Cc3ccc(C(F)(F)F)cc3)CC2)cc1` (stereo partly drawn) [Example E25, 4-(1-((3R)-2-(4-(trifluoromethyl)benzyl)-2-azabicyclo[4.1.0]heptane-3-carboxamido)cyclopropyl)benzoic acid], the Ki on hEP4 receptors [1] (setting [4]) was 3.16e-09 M. Also, the IC50 at hEP4 receptors [2] stood at 43 nM.

On to `C[C@H](NC(=O)[C@H]1CCCN1Cc1ccc(C(F)(F)F)cc1)c1ccc(C(=O)O)cc1` [Example E27, lithium 4-((S)-1-((R)-1-(4-(trifluoromethyl)benzyl)pyrrolidine-2-carboxamido)ethyl)benzoate], for which the IC50 at hEP4 receptors [2] was 50 nM.

With `O=C(O)c1ccc(C2(NC(=O)[C@H]3CC(F)(F)CCN3Cc3ccc(C(F)(F)F)cc3)CC2)cc1` [Example E17, (R)-4-(1-(4,4-difluoro-1-(4-(trifluoromethyl)benzyl)piperidine-2-carboxamido)cyclopropyl)benzoic acid], in series [3] (male, Han Wistar, plasma, iv), the AUC(0-t) (commonly the area under the concentration-time curve up to a stated or last time point) came to 966 ng·h/mL and the AUC(0-inf) (in general, total exposure, with the tail of the curve extrapolated) is 1040 ng·h/mL. Besides, the half-life (commonly the time in which the quantity being followed falls by half) in series [3] (male, Han Wistar, plasma, iv, extrapolated, indicative only) was 7.3 h. Further, the clearance in series [3] (male, Han Wistar, plasma, iv, extrapolated, indicative only, read-out: CLp* (converted)) is 4.22 mL/min. Moreover, in series [3] (male, Han Wistar, plasma, iv, extrapolated, indicative only, read-out: Vss*), the Vd is 1.79 L. Moreover, in series [3] (male, Han Wistar, plasma, po), the AUC(0-t) was 823 ng·h/mL; the concentration peaked (Cmax) at 318 ng/mL; the Tmax (as a rule, the time from dosing to the highest level) came to 0.5 h; the AUC(0-inf) was 1080 ng·h/mL. Also, the bioavailability (commonly dose-corrected exposure relative to a reference, in per cent) in series [3] (male, Han Wistar, plasma, po) came to 85%. Further, the half-life in series [3] (male, Han Wistar, plasma, po, extrapolated, indicative only) was 14.1 h. The “Tlast” value in series [3] (po) is given as 24 h. Besides, the Ki at hEP4 receptors [1] (setting [4]) is 1.26e-08 M. Besides, on hEP4 receptors [2], the IC50 was found to be 28 nM.

`C[C@H](NC(=O)[C@H]1CC(F)(F)CCN1Cc1ccc(C(F)(F)F)cc1)c1ccc(C(=O)O)cc1` [Example E16, 4-((S)-1-((R)-4,4-difluoro-1-(4-(trifluoromethyl)benzyl)piperidine-2-carboxamido)ethyl)benzoic acid] gave a Ki on hEP4 receptors [1] (setting [5]) of 2e-08 M. Besides, the concentration for half-maximal inhibition (IC50) at hEP4 receptors [2] is 9 nM.

For the molecule `O=C(O)c1ccc(C2(NC(=O)[C@H]3CCCCN3Cc3ccc(C(F)(F)F)cc3)CC2)cc1` [Example E4, lithium (R)-4-(1-(1-(4-(trifluoromethyl)benzyl)piperidine-2-carboxamido)cyclopropyl)benzoate], the IC50 at hEP4 receptors [2] came to 32 nM.

`O=C(O)c1ccc(C2(NC(=O)C3CC4(CCN3Cc3cccc(C(F)(F)F)c3)CC4)CC2)cc1` (single isomer, unassigned) [Example E9, 4-(1-(6-(3-(trifluoromethyl)benzyl)-6-azaspiro[2.5]octane-5-carboxamido)cyclopropyl)benzoic acid] had a Ki at hEP4 receptors [1] (setting [5]) of 6.31e-09 M. Further, the IC50 on hEP4 receptors [2] is 4 nM.

As for `C[C@H](NC(=O)[C@H]1CCC2CC2N1Cc1ccc(C(F)(F)F)cc1)c1ccc(C(=O)O)cc1` (stereo partly drawn) [Example E26, 4-((1S)-1-((3R)-2-(4-(trifluoromethyl)benzyl)-2-azabicyclo[4.1.0]heptane-3-carboxamido)ethyl)benzoic acid], the Ki on hEP4 receptors [1] (setting [4]) is 1.58e-09 M. On hEP4 receptors [2], the IC50 was determined as 42 nM.

At hEP4 receptors [1] (setting [5]), `C[C@H](NC(=O)C1CC(C)(C)CCN1Cc1ccc(C(F)(F)F)cc1)c1ccc(C(=O)O)cc1` (single isomer, unassigned) [Example E13] gave a Ki of 1.26e-08 M. The half-inhibitory concentration (IC50) on hEP4 receptors [2] was found to be 8 nM.

Take `O=C(O)c1ccc(C2(NC(=O)[C@H]3C[C@H]4C[C@H]4N3Cc3ccc(C(F)(F)F)cc3)CC2)cc1` [Example E30, 4-(1-((1R,3R,5R)-2-(4-(trifluoromethyl)benzyl)-2-azabicyclo[3.1.0]hexane-3-carboxamido)cyclopropyl)benzoic acid]: on hEP4 receptors [1] (setting [5]), the Ki is 5.01e-09 M. Also, the IC50 on hEP4 receptors [2] worked out at 21 nM.
